In PubChem BioAssay AID248 (DTP/NCI, 2004):
Several values for one entry are separate records, joined by “and”; a condition that tells them apart may be missing. Identical values can stand only once. Inconclusive results and toxic doses are left out. No stated cut-off is given here; in the data, active means T/C of 150% or more; inactive means T/C below 125%.

System: L1210 leukemia ip in BDF1 mice, survival T/C
Assay: NCI In Vivo Anticancer Drug Screen. Data for tumor model L1210 Leukemia (intraperitoneal) in B6D2F1 (BDF1) mice
Conditions: endpoint: mean survival time, higher = longer survival
In short: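 Tumor cells were implanted, animals were treated, and survival was followed. The result divides the treated measurement by the vehicle-control measurement.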

[1] = dose: 100.0 mg/kg/injection, schedule: Q01DX001 (ip), vehicle: carboxymethylcellulose (CMC)
[2] = dose: 400.0 mg/kg/injection, schedule: Q01DX001 (ip), vehicle: carboxymethylcellulose (CMC)
[3] = dose: 100.0 mg/kg/injection, schedule: Q04DX002 (ip), vehicle: Klucel (hydroxypropylcellulose) (HPC)
[4] = dose: 200.0 mg/kg/injection, schedule: Q01DX009 (ip), vehicle: Klucel (hydroxypropylcellulose) (HPC)
[5] = dose: 400.0 mg/kg/injection, schedule: Q01DX009 (ip), vehicle: Klucel (hydroxypropylcellulose) (HPC)
[6] = dose: 100.0 mg/kg/injection, schedule: Q04DX003 (ip), vehicle: Klucel (hydroxypropylcellulose) (HPC)
[7] = dose: 200.0 mg/kg/injection, schedule: Q04DX003 (ip), vehicle: Klucel (hydroxypropylcellulose) (HPC)
[8] = dose: 100.0 mg/kg/injection, schedule: Q01DX009 (ip), vehicle: saline with Tween-80
[9] = dose: 200.0 mg/kg/injection, schedule: Q01DX009 (ip), vehicle: saline with Tween-80
[10] = dose: 400.0 mg/kg/injection, schedule: Q01DX009 (ip), vehicle: saline with Tween-80
[11] = dose: 5.0 mg/kg/injection, schedule: Q01DX001 (ip), vehicle: saline
[12] = dose: 10.0 mg/kg/injection, schedule: Q01DX001 (ip), vehicle: saline
[13] = dose: 20.0 mg/kg/injection, schedule: Q01DX001 (ip), vehicle: saline
[14] = dose: 40.0 mg/kg/injection, schedule: Q01DX001 (ip), vehicle: saline
[15] = dose: 100.0 mg/kg/injection, schedule: Q01DX001 (ip), vehicle: saline
[16] = dose: 200.0 mg/kg/injection, schedule: Q01DX001 (ip), vehicle: saline
[17] = dose: 400.0 mg/kg/injection, schedule: Q01DX001 (ip), vehicle: saline
[18] = dose: 25.0 mg/kg/injection, schedule: Q01DX009 (ip), vehicle: Klucel (hydroxypropylcellulose) (HPC)
[19] = dose: 50.0 mg/kg/injection, schedule: Q01DX009 (ip), vehicle: Klucel (hydroxypropylcellulose) (HPC)
[20] = dose: 100.0 mg/kg/injection, schedule: Q01DX009 (ip), vehicle: Klucel (hydroxypropylcellulose) (HPC)
[21] = dose: 400.0 mg/kg/injection, schedule: Q04DX003 (ip), vehicle: Klucel (hydroxypropylcellulose) (HPC)
[22] = dose: 100.0 mg/kg/injection, schedule: Q04DX003 (ip), vehicle: saline with Tween-80
[23] = dose: 200.0 mg/kg/injection, schedule: Q04DX003 (ip), vehicle: saline with Tween-80
[24] = dose: 400.0 mg/kg/injection, schedule: Q04DX003 (ip), vehicle: saline with Tween-80
[25] = dose: 100.0 mg/kg/injection, schedule: Q01DX009 (ip), vehicle: saline sonified
[26] = dose: 200.0 mg/kg/injection, schedule: Q01DX009 (ip), vehicle: saline sonified
[27] = dose: 400.0 mg/kg/injection, schedule: Q01DX009 (ip), vehicle: saline sonified

Measured: T/C

CC(=O)OCCC/C(=C\c1ccc(N(C)C)cc1)[N+](=O)[O-]
inactive: [1] 91 % of control | dose: 200.0 mg/kg/injection, schedule: Q01DX001 (ip), vehicle: carboxymethylcellulose (CMC) 91 % of control | [2] 98 % of control

O=C1c2ccccc2C(=O)N1Cc1ncn[nH]1
inactive: dose: 100.0 mg/kg/injection, schedule: Q01DX001 (ip), vehicle: saline with Tween-80 100 % of control | dose: 200.0 mg/kg/injection, schedule: Q01DX001 (ip), vehicle: saline with Tween-80 96 % of control | dose: 400.0 mg/kg/injection, schedule: Q01DX001 (ip), vehicle: saline with Tween-80 91 % of control

Clc1ccccc1C(c1cccc2ccccc12)n1ccnc1 (stereo not given)
inactive: dose: 25.0 mg/kg/injection, schedule: Q04DX002 (ip), vehicle: Klucel (hydroxypropylcellulose) (HPC) 92 % of control | dose: 50.0 mg/kg/injection, schedule: Q04DX002 (ip), vehicle: Klucel (hydroxypropylcellulose) (HPC) 100 % of control | [3] 100 % of control | [4] 93 % of control | [5] 86 % of control

c1ccc(CC2CCCC2)cc1
inactive: [6] 93 % of control | [7] 95 % of control | dose: 300.0 mg/kg/injection, schedule: Q04DX003 (ip), vehicle: Klucel (hydroxypropylcellulose) (HPC) 106 % of control

CC1=NN(c2ccc([N+](=O)[O-])cc2)C(=O)C1[N+](=O)[O-] (stereo not given) (tested in a mixture with another compound)
inactive: dose: 75.0 mg/kg/injection, schedule: Q01DX001 (ip), vehicle: carboxymethylcellulose (CMC) 101 % of control | dose: 150.0 mg/kg/injection, schedule: Q01DX001 (ip), vehicle: carboxymethylcellulose (CMC) 95 % of control | dose: 300.0 mg/kg/injection, schedule: Q01DX001 (ip), vehicle: carboxymethylcellulose (CMC) 110 % of control

O=[N+]([O-])c1cccc(OCCCc2ccccc2)c1
inactive: [8] 98 % of control | [9] 102 % of control | [10] 112 % of control

CCOCC[P+](c1ccccc1)(c1ccccc1)c1ccccc1
inactive: [11] 92 % of control | [12] 92 % of control | dose: 10.0 mg/kg/injection, schedule: Q01DX015 (ip), vehicle: saline 90 % of control | [13] 106 % of control | [14] 105 % of control

c1cc[c]([Ge]([CH2][CH2][Sn]([c]2ccccc2)([c]2ccccc2)[c]2ccccc2)([CH2][CH2][Sn]([c]2ccccc2)([c]2ccccc2)[c]2ccccc2)[c]2ccccc2)cc1
inactive: dose: 100.0 mg/kg/injection, schedule: Q04DX002 (ip), vehicle: saline with Tween-80 98 % of control | dose: 200.0 mg/kg/injection, schedule: Q04DX002 (ip), vehicle: saline with Tween-80 102 % of control | dose: 400.0 mg/kg/injection, schedule: Q04DX002 (ip), vehicle: saline with Tween-80 94 % of control

CCCCCCCCCCC[As](=O)(O)CCCCCCCCCCC
inactive: dose: 50.0 mg/kg/injection, schedule: Q01DX001 (ip), vehicle: saline 103 % of control | [15] 97 % of control | [16] 103 % of control | [17] 101 % of control

COc1c(CO)c2c(c(OC)c1OC)-c1ccc(OC)c(=O)cc1[C@@H](NC(C)=O)CC2
inactive: dose: 33.0 mg/kg/injection, schedule: Q01DX015 (ip), vehicle: saline 122 % of control

O=C1c2c(c(-c3ccccc3)c3ccccc3c2-c2ccccc2)C(=O)C2C(c3ccccc3)c3ccccc3C(c3ccccc3)C12 (stereo not given)
inactive: [3] 113 % of control | dose: 200.0 mg/kg/injection, schedule: Q04DX002 (ip), vehicle: Klucel (hydroxypropylcellulose) (HPC) 106 % of control | dose: 400.0 mg/kg/injection, schedule: Q04DX002 (ip), vehicle: Klucel (hydroxypropylcellulose) (HPC) 98 % of control

Cc1cc(NC(=O)Nc2ccc(Cl)cc2C)no1
inactive: dose: 12.5 mg/kg/injection, schedule: Q01DX009 (ip), vehicle: Klucel (hydroxypropylcellulose) (HPC) 102 % of control | [18] 97 % of control | [19] 91 % of control

CC(=O)Nc1ncccc1C
inactive: [11] 94 % of control | [12] 96 % of control | [13] 101 % of control | [14] 100 % of control

Cc1nc(Br)c2cnccn12
inactive: dose: 12.5 mg/kg/injection, schedule: Q01DX009 (ip), vehicle: saline 106 % of control | dose: 12.5 mg/kg/injection, schedule: Q04DX003 (ip), vehicle: saline 98 % of control | dose: 25.0 mg/kg/injection, schedule: Q01DX009 (ip), vehicle: saline 103 % of control | dose: 25.0 mg/kg/injection, schedule: Q04DX003 (ip), vehicle: saline 97 % of control | dose: 50.0 mg/kg/injection, schedule: Q04DX003 (ip), vehicle: saline 97 % of control

O=C(N/N=C/c1ccc(Cl)cc1)c1cccc([N+](=O)[O-])c1
inactive: [20] 94 % of control | [4] 94 % of control | [5] 95 % of control

O=C1OC(c2cccc(Cl)c2)=N/C1=C\C=C/c1ccccc1
inactive: [1] 95 % of control | dose: 100.0 mg/kg/injection, schedule: Q01DX009 (ip), vehicle: carboxymethylcellulose (CMC) 89 % of control and 92 % of control | dose: 200.0 mg/kg/injection, schedule: Q01DX009 (ip), vehicle: carboxymethylcellulose (CMC) 87 % of control and 92 % of control | [2] 93 % of control

C/C(CC(O)(C(F)(F)F)C(F)(F)F)=N\N1CCCCCC1
inactive: [6] 97 % of control | [7] 103 % of control | [21] 94 % of control

C=Cc1cnc(N)nc1-c1ccccc1
inactive: [22] 90 % of control | [23] 105 % of control | [24] 97 % of control

C=CCCCCCCCCC(=O)NCC1CCCCO1 (stereo not given)
inactive: [8] 94 % of control | [9] 97 % of control | [10] 101 % of control

C/C(=N/OC(=O)N(C)C)c1cccc(Cl)c1
inactive: dose: 44.0 mg/kg/injection, schedule: Q01DX001 (ip), vehicle: saline 95 % of control and 103 % of control | dose: 66.0 mg/kg/injection, schedule: Q01DX001 (ip), vehicle: saline 95 % of control and 101 % of control | [15] 94 % of control and 95 % of control | dose: 150.0 mg/kg/injection, schedule: Q01DX001 (ip), vehicle: saline 101 % of control and 112 % of control | [16] 97 % of control | [17] 103 % of control

COC(=O)C(CCC(=O)O)NC(=O)OCc1ccccc1 (stereo not given)
inactive: [18] 89 % of control | dose: 50.0 mg/kg/injection, schedule: Q01DX001 (ip), vehicle: Klucel (hydroxypropylcellulose) (HPC) 94 % of control | [19] 97 % of control | dose: 100.0 mg/kg/injection, schedule: Q01DX001 (ip), vehicle: Klucel (hydroxypropylcellulose) (HPC) 103 % of control | [6] 96 % of control | dose: 200.0 mg/kg/injection, schedule: Q01DX001 (ip), vehicle: Klucel (hydroxypropylcellulose) (HPC) 97 % of control | [7] 86 % of control

COc1cccc(CC2=C3CCCN(C(=O)c4ccccc4)C3CCC2=O)c1 (stereo not given)
inactive: [25] 98 % of control | [26] 96 % of control | [27] 96 % of control

COc1c(Cl)cc(Cl)cc1Cl
inactive: [25] 96 % of control | [6] 101 % of control | [26] 107 % of control | [7] 98 % of control | [27] 97 % of control | [21] 104 % of control

ClC(Cl)(Cl)C(Nc1ccccc1)Nc1ccccc1
inactive: [20] 87 % of control | [6] 94 % of control | [4] 96 % of control | [7] 90 % of control | [5] 91 % of control | [21] 92 % of control

Nc1nnnn1-c1ccc2ccccc2c1
inactive: [22] 101 % of control | [23] 97 % of control | [24] 101 % of control

NNC(=O)Cc1nc2ccccc2[nH]c1=O
inactive: [20] 102 % of control | [6] 106 % of control | [4] 96 % of control | [7] 95 % of control | [21] 98 % of control
